Values quoted from earlier work as cited in patent publication US9669111B2, “Device for the diagnosis of inflammatory tissues in dental applications” (THOMMEN MEDICAL AG, priority 2012, dated 2017).
Where a name gives a salt, the structure may show the parent alone.

Tests used:
[1] = tested on: human tongue; details: for concentration sensed down to (taste recognition): human tongue, average human
[2] = tested on: human volunteers (bitter taste); details: reciprocal of the dilution barely noticed as bitter; reference for calibration

SMILES	concentration sensed down to (taste recognition) [1]	also measured
C=C[C@H]1C[N@@]2CC[C@H]1C[C@H]2[C@H](O)c1ccnc2ccc(OC)cc12 [Quinine sulfate]	0.0004 mM	
C=C[C@H]1C[N@@]2CC[C@H]1C[C@H]2[C@H](O)c1ccnc2ccc(OC)cc12 [quinine-HCl]		bitter value [2]: 200,000
O=C1NS(=O)(=O)c2ccccc21 [saccharin]	0.02 mM	
C=C[C@H]1C[N@@]2CC[C@H]1C[C@H]2[C@H](O)c1ccnc2ccc(OC)cc12 [quinine]		sensory recognition threshold ([1]; human): about 0.0004 mmol/L
